Here are results for 1 compound from patent US20240165196A1, “Beta-Lactamase Inhibitors” (VIB VZW, priority 2021, published 2024).

Test [1] deals with TEM variants (TEM15, TEM30, TEM52, TEM10, TEM155). Briefly: aggregation (RALS temperature ramp) of recombinant TEM variants in presence and absence of tazobactam. It is filed as biochemical. The note with it: presence versus absence of tazobactam. An excerpt:
FIGS. 2A-2M. (FIG. 2A) TEM mutations and their effects on stability (total energy) as predicted by FoldX. […] Dashed line indicates a total energy difference of 0.5 kcal/mol, the FoldX cut-off above which mutations are considered to be destabilizing. (FIG. 2B) Barplot mapping mutations in (FIG. 2A) to the TEM sequence and indicating occurrence. […] The bar heights correspond to the number of times a mutation occurs across different TEM variants (right-hand y-axis). The color coding is identical to that in (FIG. 2A). Red line indicates the TANGO scores (indicated on the left-hand y-axis), with peaks corresponding to APRs. (FIG. 2C) Mapping of mutations in (FIG. 2A) and (FIG. 2B) to the TEM structure (pdb 1xpb). Protein surface is shown in gray, color coding of mutations is identical to (FIG. 2A) and (FIG. 2B). (FIGS. 2D, 2E, and 2F) Temperature-dependent evolution of the Right-Angle Light Scattering (RALS) intensity during a temperature ramp, similar as in FIG. 1F for key mutants of TEM1, namely TEM-10 (FIG. 2D), TEM-30 (FIG. 2E) and TEM-155 (FIG. 2F). Experiments were shown in triplicate, single repeat is shown. (FIG. 2G) Schematic representation of the structure of the peptides. APR—Aggregation Prone Region, R—Arginine. (FIG. 2H) Ribbon representation of the superposition of the crystal structures of TEM (green, pdb id 1bt5) and SHV (blue, pdb id 1shv). […]

For test [2], the system named is uro-pathogenic E. coli strain (UPEC strain blaTEM-1). The test is described as follows: mouse Urinary Tract Infection (UTI) model. The note with it: 30 mg/kg ampicillin plus 10 mg/kg test substance; 24 h. It is filed as in vivo. As to the method: FIGS. 4A-4K. […] IV—Intravenous, IP—Intraperitoneal, SC—Subcutaneously. The data shown is from a single experiment with 4 animals per group. […] (ns—non significant, #—P>0.05, *—P≤0.05, ***—P≤0.01, ****—P≤0.001). (FIG. 4G) FICI plot as in FIG. 2, for the E. coli strains indicated and the combination of penicillin and the TEM3.2 peptide. […] (FIG. 4J) Same as FIG. 4H for peptide BGAL. (FIG. 4K) Same as FIG. 4H for peptide P33.
Vehicle alone (0.9% NaCl) was also administered (IV).
To test the efficacy of the peptides, urinary tract infection model was performed as described previously^65. Briefly, female C57BL/6Jax mice female mice were deprived from water for at least one hour. […] Mice were slowly inoculated urethrally with 50 μL of a bacterial suspension slowly (10^8 CFU/mouse) using a sterile catheter (The plastic intravenous cannula of the paediatric intravenous-access cannula (GS391350) in the bladder over 5 s in order to avoid vesicoureteral reflux. The catheter was then removed directly after inoculation. After surgery, the animals were visually monitored for full recovery. After 1 h post-inoculation, all mice received ampicillin (30 mg/kg_PO-orally) and at the same time 3 groups of animals received the peptides via different administration routes (10mg/kg_IV—Intravenous; IP—Intraperitoneal or SC—sub-cutaneous) and the positive control groups received tazobactam (10 mg/Kg, PO). […]

Another test concerns the target T1, SHV-11 (Klebsiella pneumoniae, UniProt P0AD64).
T1 construct: DNA TEM (870 bp) or SHV (894 bp) were each sub-cloned into a PUC57 vector cloning site NdeI/XhoI; His-tag (N); TEV cleavage site (N); made in house; host or cells: E. coli BL21 (DE3)
The test is described as follows: thermal denaturation with light scattering (aggregation) in presence of excess tazobactam. The note with it: SHV-11, excess of tazobactam. It is filed as biochemical.

The target of the next test is T2, TEM-1 (Escherichia coli, UniProt P62593).
T2 construct: DNA TEM (870 bp) or SHV (894 bp) were each sub-cloned into a PUC57 vector cloning site NdeI/XhoI; His-tag (N); TEV cleavage site (N); made in house; host or cells: E. coli BL21 (DE3)
T2 sequence (P62593 24-286 limits assumed): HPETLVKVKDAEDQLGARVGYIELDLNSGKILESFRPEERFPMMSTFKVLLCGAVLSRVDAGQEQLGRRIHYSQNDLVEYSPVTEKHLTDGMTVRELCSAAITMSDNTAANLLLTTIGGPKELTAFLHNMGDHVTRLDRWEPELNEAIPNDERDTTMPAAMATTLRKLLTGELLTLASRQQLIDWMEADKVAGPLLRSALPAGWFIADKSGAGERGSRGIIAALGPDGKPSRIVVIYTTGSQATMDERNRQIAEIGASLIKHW
The test is described as follows: thermal denaturation with right-angle/static light scattering (aggregation) in presence of beta-lactamase inhibitors. It is filed as biochemical, E. coli.

The test system of another test is E. coli strain UZ_TEM104. It is filed as cell-based. The note with it: additive at fixed 50 μg/mL.

T1 sequence (P0AD64 22-286 L31Q): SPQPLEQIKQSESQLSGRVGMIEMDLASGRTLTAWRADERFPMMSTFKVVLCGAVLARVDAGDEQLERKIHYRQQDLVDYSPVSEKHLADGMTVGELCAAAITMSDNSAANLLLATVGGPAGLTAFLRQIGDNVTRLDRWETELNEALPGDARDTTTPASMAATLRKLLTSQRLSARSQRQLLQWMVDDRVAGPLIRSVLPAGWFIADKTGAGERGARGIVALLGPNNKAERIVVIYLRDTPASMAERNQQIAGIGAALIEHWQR

As to `C[C@]1(Cn2ccnn2)[C@H](C(=O)O)N2C(=O)C[C@H]2S1(=O)=O` [tazobactam], the “effect of tazobactam on aggregation of TEM variants” value in test [1] is recorded as “pharmacological chaperone effect”. Besides, the “best reduction of the bacterial load (up to)” value in test [2] stood at 1.8 log folds. Also, the “aggregation onset temperature Tagg” value on SHV-11 is “increase”; at TEM-1 (TEM-1, excess of tazobactam, more marked than for SHV-11), “increase”. In addition, the “aggregation of the enzyme (static light scattering), dose-response” value at TEM-1 (TEM-1, dose titration of inhibitor) is on record as “reduce the aggregation of the enzyme in a dose-responsive manner”. The “reduction of the MIC of penicillin G” value with E. coli strain UZ_TEM104 is on record as 4 fold.
